Measurements: publication PMC4786259 (PLoS ONE, 2016)

Assays:
5-HT6 = target: T1, 5-HT6 (Homo sapiens, UniProt P50406); assay: PDSP radioligand competition binding; settings: radioligand [^3H]LSD; read-out: In Vitro Affinity
T1 construct: expressed in transfected cells

α1B = α1B (Homo sapiens, UniProt P35368); assay: PDSP radioligand competition binding; settings: radioligand [^3H]Prazosin; read-out: In vitro Affinity
α1D = α1D (Homo sapiens, UniProt P25100); assay: PDSP radioligand competition binding; settings: radioligand [^3H]Prazosin; read-out: In vitro Affinity
α2B = α2B (Homo sapiens, UniProt P18089); assay: PDSP radioligand competition binding; settings: radioligand [^3H]Rauwolscine; read-out: In vitro Affinity
β1-AR = β1-AR (Homo sapiens, UniProt P08588); assay: PDSP radioligand competition binding; settings: radioligand [^3H]CGP12177; read-out: In vitro Affinity
MOR = MOR (Homo sapiens, UniProt P35372); assay: PDSP radioligand competition binding; settings: radioligand [^3H]DAMGO; read-out: In vitro Affinity
dopamine D2 receptor = target: T2, dopamine D2 receptor (Homo sapiens, UniProt P14416); assay type: cell-based
T2 construct: expressed in transfected cells; host or cells: HEKT cells (ATCC)

C57BL/6J mice = assay: Prepulse inhibition, PCP-disrupted; assay type: in vivo
rats = system: rats; parameters: method as in PMID 100809; settings: dose range 25–100 mg/kg; cited from earlier work
AmpC β-lactamase = AmpC β-lactamase (Escherichia coli, UniProt P00811); assay: AmpC β-lactamase assay counterscreen for colloidal aggregation; settings: <= 10 μM; data not shown
Chain of AmpC β-lactamase (P00811 20-377): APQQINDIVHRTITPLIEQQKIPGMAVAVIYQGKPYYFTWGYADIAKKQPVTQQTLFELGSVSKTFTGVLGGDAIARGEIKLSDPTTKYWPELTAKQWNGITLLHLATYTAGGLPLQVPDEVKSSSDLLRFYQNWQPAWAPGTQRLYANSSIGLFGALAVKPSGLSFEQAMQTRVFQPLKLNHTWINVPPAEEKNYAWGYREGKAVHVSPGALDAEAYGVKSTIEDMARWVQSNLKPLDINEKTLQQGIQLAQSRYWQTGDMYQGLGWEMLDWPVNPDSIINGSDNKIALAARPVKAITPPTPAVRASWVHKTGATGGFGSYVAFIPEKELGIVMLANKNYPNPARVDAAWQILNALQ

T2 sequence (P14416 whole entry, species assumed): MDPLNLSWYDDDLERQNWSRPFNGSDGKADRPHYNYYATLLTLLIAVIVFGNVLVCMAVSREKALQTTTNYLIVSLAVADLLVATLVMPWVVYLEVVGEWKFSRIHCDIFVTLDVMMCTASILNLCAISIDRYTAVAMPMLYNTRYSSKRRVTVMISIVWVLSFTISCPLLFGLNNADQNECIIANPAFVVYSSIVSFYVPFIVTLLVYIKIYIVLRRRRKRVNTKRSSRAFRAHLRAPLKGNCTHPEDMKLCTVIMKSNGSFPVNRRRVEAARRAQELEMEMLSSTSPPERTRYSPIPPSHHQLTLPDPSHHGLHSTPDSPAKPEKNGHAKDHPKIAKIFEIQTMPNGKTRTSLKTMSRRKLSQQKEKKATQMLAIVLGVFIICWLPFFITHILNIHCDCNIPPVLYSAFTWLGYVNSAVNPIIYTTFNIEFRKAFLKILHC
Chain of α1D (P25100 whole entry): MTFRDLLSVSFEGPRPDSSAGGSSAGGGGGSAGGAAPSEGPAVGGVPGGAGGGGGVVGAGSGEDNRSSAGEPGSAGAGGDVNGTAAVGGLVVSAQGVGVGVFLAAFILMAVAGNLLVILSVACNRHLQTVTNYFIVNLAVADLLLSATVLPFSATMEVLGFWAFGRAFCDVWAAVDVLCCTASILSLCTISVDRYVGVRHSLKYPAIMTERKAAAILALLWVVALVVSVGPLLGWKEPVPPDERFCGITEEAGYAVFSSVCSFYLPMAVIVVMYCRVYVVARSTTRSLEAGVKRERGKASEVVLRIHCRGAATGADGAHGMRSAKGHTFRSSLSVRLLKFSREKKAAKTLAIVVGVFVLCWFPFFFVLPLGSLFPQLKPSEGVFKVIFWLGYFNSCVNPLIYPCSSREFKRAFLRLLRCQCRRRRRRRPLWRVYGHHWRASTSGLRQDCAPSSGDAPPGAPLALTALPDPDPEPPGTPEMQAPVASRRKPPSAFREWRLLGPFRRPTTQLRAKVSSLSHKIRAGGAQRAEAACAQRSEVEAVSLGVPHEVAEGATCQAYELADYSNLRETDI
Chain of α1B (P35368 whole entry): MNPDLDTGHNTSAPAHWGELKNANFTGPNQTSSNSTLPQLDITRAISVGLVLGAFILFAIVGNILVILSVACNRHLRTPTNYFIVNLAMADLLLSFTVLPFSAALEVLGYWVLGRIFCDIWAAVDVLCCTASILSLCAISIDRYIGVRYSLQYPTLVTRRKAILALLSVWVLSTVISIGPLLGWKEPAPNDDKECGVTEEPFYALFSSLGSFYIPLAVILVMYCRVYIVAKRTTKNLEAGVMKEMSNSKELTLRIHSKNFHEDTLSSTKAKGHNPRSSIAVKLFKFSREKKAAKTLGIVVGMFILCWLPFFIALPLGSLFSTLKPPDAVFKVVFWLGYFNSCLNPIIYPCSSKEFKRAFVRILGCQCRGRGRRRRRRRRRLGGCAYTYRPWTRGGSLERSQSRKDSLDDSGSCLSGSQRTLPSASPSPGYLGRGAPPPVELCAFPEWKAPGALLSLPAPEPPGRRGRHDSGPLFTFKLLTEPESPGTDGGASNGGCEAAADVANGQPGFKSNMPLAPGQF
Chain of α2B (P18089 whole entry): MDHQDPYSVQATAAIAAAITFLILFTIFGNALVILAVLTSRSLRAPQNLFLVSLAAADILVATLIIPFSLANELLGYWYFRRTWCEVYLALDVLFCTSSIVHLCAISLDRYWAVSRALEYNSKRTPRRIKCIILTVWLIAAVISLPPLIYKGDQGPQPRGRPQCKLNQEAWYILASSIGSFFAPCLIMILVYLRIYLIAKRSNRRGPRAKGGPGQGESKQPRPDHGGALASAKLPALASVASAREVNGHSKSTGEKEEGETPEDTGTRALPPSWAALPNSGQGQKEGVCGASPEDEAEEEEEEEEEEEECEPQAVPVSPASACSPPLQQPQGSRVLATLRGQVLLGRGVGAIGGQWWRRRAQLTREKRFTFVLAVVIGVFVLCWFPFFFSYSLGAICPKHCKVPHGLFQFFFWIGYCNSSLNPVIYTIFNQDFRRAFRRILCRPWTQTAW
Chain of β1-AR (P08588 whole entry): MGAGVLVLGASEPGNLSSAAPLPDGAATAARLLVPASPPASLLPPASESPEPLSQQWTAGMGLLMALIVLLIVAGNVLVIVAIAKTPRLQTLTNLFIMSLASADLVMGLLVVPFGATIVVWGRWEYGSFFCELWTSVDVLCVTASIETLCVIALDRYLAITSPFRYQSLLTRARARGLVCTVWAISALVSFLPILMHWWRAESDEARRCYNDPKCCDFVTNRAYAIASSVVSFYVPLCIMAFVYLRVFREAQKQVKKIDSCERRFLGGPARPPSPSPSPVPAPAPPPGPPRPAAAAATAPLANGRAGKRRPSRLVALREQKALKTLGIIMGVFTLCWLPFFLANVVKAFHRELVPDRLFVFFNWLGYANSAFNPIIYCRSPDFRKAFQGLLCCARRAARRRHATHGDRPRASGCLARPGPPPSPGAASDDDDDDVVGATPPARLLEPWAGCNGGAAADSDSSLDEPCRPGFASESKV
T1 sequence (P50406 whole entry, species assumed): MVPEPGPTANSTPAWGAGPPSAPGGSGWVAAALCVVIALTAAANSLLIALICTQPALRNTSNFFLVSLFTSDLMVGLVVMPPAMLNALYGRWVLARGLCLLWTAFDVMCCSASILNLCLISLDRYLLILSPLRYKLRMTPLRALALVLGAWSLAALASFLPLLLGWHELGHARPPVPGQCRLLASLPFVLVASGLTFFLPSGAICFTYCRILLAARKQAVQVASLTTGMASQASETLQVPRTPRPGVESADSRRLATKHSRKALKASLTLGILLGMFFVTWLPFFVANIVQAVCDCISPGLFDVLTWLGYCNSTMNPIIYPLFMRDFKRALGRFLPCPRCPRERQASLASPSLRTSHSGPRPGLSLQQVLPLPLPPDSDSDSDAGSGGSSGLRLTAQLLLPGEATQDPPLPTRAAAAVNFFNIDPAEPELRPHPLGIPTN
Chain of MOR (P35372 whole entry): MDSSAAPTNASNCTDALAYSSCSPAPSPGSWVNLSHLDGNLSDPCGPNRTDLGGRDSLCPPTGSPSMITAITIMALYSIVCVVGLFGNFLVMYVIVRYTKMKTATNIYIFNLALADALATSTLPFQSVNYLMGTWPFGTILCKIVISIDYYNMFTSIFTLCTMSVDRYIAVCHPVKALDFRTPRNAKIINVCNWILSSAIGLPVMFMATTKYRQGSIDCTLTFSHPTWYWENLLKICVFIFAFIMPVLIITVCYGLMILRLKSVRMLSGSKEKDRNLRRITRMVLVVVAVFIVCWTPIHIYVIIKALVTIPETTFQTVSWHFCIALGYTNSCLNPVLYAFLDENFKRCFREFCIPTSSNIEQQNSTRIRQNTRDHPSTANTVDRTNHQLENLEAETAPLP

SMILES: COc1cc2c3c(c1OC)-c1ccccc1C[C@H]3N(C)CC2 [nuciferine]
- Ki (5-HT6): 268 nM
- Ki (α1B): 2000 nM
- Ki (α1D): 818 nM
- Ki (α2B): 687 nM
- Ki (β1-AR): 7150 nM
- Ki (MOR): 9550 nM
- Function Type (dopamine D2 receptor): Partial agonist
- Emax (dopamine D2 receptor; D2 partial agonist activity, Fig 4A): 67 % of dopamine
- PCP-disrupted PPI (C57BL/6J mice; 5 mg/kg i.p. before 6 mg/kg PCP): higher PPI than the PCP-vehicle groups
- PCP-disrupted PPI (C57BL/6J mice; 10 mg/kg i.p. before 6 mg/kg PCP): rescued the PCP-disrupted PPI
- hyperlocomotor effect of amphetamine (rats): inhibits the hyperlocomotor effect of amphetamine
- inhibition of AmpC β-lactamase (AmpC β-lactamase): did not inhibit
